Values joined by “and” are separate entries in the source; they are usually repeats but may differ in a detail not shown here. Identical values can stand only once. “Also recorded” adds a separate entry of the source.
Legend:
[1] = system: UACC-62 human melanoma cells; experiment: Organelle localization in live cells by fluorescence microscopy; conditions: live UACC-62 cells, fluorescence microscope λex=405, 490, 570 nm; λem>510 nm
[2] = Fluorescence excitation/emission of the styryl dye library compounds; assay type: physicochemical

SMILES | LOCALIZATION [1] | EM(nm) ([2]; EX/EM peak no. 1) | EX(nm) ([2]; EX/EM peak no. 1) | EM(nm) ([2]; EX/EM peak no. 2) | EX(nm) ([2]; EX/EM peak no. 2)
COc1ccccc1C=Cc1cc[n+](C)c2ccccc12.[I-] [Compound G9] | MITO | 630 nm | 430 nm |  | 
C[n+]1ccc(C=Cc2ccc(OCc3ccccc3)c(OCc3ccccc3)c2)c2ccccc21.[I-] [Compound G12] | MITO and NUCLEOLI | 590 nm | 420-460 nm |  | 
COc1ccc(C=Cc2cc[n+](C)c3ccccc23)c2ccccc12.[I-] [Compound G14] | MITO | 620 nm | 480(broad) nm |  | 
CC(=O)Nc1ccc(/C=C/c2cc[n+](C)c3ccccc23)cc1.[I-] [Compound G18] | MITO | 670 nm | 430 nm |  | 
CN(C)c1ccc(/C=C/c2cc[n+](C)c3ccccc23)cc1.[I-] [Compound G19] | MITO | 670 nm | 500 nm |  | 
C[n+]1ccc(C=Cc2ccccc2[N+](=O)[O-])c2ccccc21.[I-] [Compound G20] | MITO | 670 nm | 490-540 nm |  | 
C[n+]1ccc(/C=C/c2cccc([N+](=O)[O-])c2)c2ccccc21.[I-] [Compound G21] | MITO | 670 nm | 450-550 nm |  | 
COc1ccc2ccccc2c1C=Cc1cc[n+](C)c2ccccc12.[I-] [Compound G23] | VESICLE | 610 nm | 450-500 nm |  | 
C[n+]1ccc(/C=C/c2c[nH]c3ccccc23)c2ccccc21.[I-] [Compound G24] | MITO | 610 nm | 490 nm |  | 
CN(C)c1ccc(C=Cc2cc[n+](C)c3ccccc23)c2ccccc12.[I-] [Compound G27] | MITO | 720 nm | 450-550(broad) nm |  | 
C[n+]1ccc(C=Cc2c(F)c(F)c(F)c(F)c2F)c2ccccc21.[I-] [Compound G31] | MITO and NUCLEOLI | 650 nm | 430 nm |  | 
C[n+]1ccc(C=Cc2cccc3ccccc23)c2ccccc21.[I-] [Compound G32] | MITO | 560 nm | 430 nm |  | 
C[n+]1ccc(C=Cc2ccc3ccccc3c2)c2ccccc21.[I-] [Compound G33] | MITO and CYTO | 550 nm | 360-470 nm |  | 
COc1cc(OC)c(OC)cc1C=Cc1cc[n+](C)c2ccccc12.[I-] [Compound G38] | VESICLE and CYTO and NUCLEI | 640 nm | 420 nm |  | 
C[n+]1c(C=CCc2ccccc2)ccc2ccccc21.[I-] [Compound H1] | MITO | 640 nm |  |  | 
C[n+]1c(C=Cc2ccccc2Br)ccc2ccccc21.[I-] [Compound H3] | MITO | 640 nm | 530 nm |  | 
COc1ccccc1C=Cc1ccc2ccccc2[n+]1C.[I-] [Compound H9] | MITO | 650 nm |  |  | 
COc1ccc(C=Cc2ccc3ccccc3[n+]2C)cc1.[I-] [Compound H10] | MITO | 650 nm | 530 nm |  | 
C[n+]1c(C=Cc2ccc(OCc3ccccc3)c(OCc3ccccc3)c2)ccc2ccccc21.[I-] [Compound H12] | VESICLE | 560 nm | 430 nm |  | 
COc1ccc(C=Cc2ccc3ccccc3[n+]2C)c2ccccc12.[I-] [Compound H14] | VESICLE | 590 nm | 420-520 nm |  | 
COc1ccc(C=Cc2ccc3ccccc3[n+]2C)cc1O.[I-] [Compound H15] | MITO | 610-620 nm | 420 nm |  | 
C[n+]1c(C=Cc2ccc(O)cc2)ccc2ccccc21.[I-] [Compound H16] | NUCLEOLI | 630 nm | 450 nm |  | 
C[n+]1c(C=Cc2ccc(-c3ccccc3)cc2)ccc2ccccc21.[I-] [Compound H17] | VESICLE; also recorded: NUCLEOLI | 650 nm | 430 nm | 540 | 420 nm
CC(=O)Nc1ccc(C=Cc2ccc3ccccc3[n+]2C)cc1.[I-] [Compound H18] | MITO and NUCLEOLI | 650 nm | 430 nm |  | 
CN(C)c1ccc(/C=C/c2ccc3ccccc3[n+]2C)cc1.[I-] [Compound H19] | NUCLEOLI | 640 nm | 490(broad) nm |  | 
C[n+]1c(C=Cc2ccccc2[N+](=O)[O-])ccc2ccccc21.[I-] [Compound H20] | NUCLEOLI | 620 nm |  |  | 

SMILES | LOCALIZATION [1] | EM(nm) ([2]; EX/EM peak no. 1) | EX(nm) ([2]; EX/EM peak no. 1) | EM(nm) ([2]; EX/EM peak no. 2) | EX(nm) ([2]; EX/EM peak no. 2)
C[n+]1c(C=Cc2cccc([N+](=O)[O-])c2)ccc2ccccc21.[I-] [Compound H21] | MITO and NUCLEOLI | 630 nm | 420-550 nm |  | 
COc1ccc2ccccc2c1C=Cc1ccc2ccccc2[n+]1C.[I-] [Compound H23] | VESICLE; also recorded: NUCLEOLI | 580 nm | 420-480 nm |  | 
C[n+]1c(C=Cc2c[nH]c3ccccc23)ccc2ccccc21.[I-] [Compound H24] | CYTO | 560 nm | 400-500 nm |  | 
CN(C)c1ccc(C=Cc2ccc3ccccc3[n+]2C)c2ccccc12.[I-] [Compound H27] | MITO | 620 nm | 500(broad) nm |  | 
C[n+]1c(C=Cc2ccc3c(c2)Cc2ccccc2-3)ccc2ccccc21.[I-] [Compound H28] | NUCLEI | 660 nm | 350-500 nm |  | 
C[n+]1c(/C=C/c2c(F)c(F)c(F)c(F)c2F)ccc2ccccc21.[I-] [Compound H31] | MITO and NUCLEI | 610 nm | 420 nm |  | 
C[n+]1c(C=Cc2cccc3ccccc23)ccc2ccccc21.[I-] [Compound H32] | MITO and NUCLEOLI | 660 nm | 420 nm |  | 
C[n+]1c(C=Cc2ccc3ccccc3c2)ccc2ccccc21.[I-] [Compound H33] | MITO and NUCLEI and CYTO and VESICLE | 620 nm | 340-460 nm |  | 
C[n+]1c(C=Cc2ccc3c(c2)OCO3)ccc2ccccc21.[I-] [Compound H39] | CYTO | 670 nm and 560 nm | 530 nm and 430(broad) nm |  | 
COc1ccc2c(ccc(C=CCc3ccccc3)[n+]2C)c1.[I-] [Compound I1] | MITO | 630 nm | 460 nm |  | 
COc1ccc2c(ccc(C=Cc3ccccc3Br)[n+]2C)c1.[I-] [Compound I3] | MITO | 640 nm | 480 nm |  | 
COc1ccc2c(ccc(C=Cc3cccc(Br)c3)[n+]2C)c1.[I-] [Compound I4] | GRANULE | 620 nm | 400(broad) nm |  | 
COc1ccc(C=Cc2ccc3cc(OC)ccc3[n+]2C)cc1.[I-] [Compound I10] | CYTO and VESICLE | 520 nm |  | 640 | 
COc1ccc2c(ccc(C=Cc3ccc(OCc4ccccc4)c(OCc4ccccc4)c3)[n+]2C)c1.[I-] [Compound I12] | VESICLE | 560 nm |  |  | 
COc1ccc2c(ccc(C=Cc3ccc(OC)c4ccccc34)[n+]2C)c1.[I-] [Compound I14] | VESICLE | 580-590 nm | 460 nm |  | 
COc1ccc2c(ccc(C=Cc3ccc(O)cc3)[n+]2C)c1.[I-] [Compound I16] | VESICLE; also recorded: NUCLEOLI |  | 360 nm | 610 | 360-460 nm
COc1ccc2c(ccc(C=Cc3ccc(-c4ccccc4)cc3)[n+]2C)c1.[I-] [Compound I17] | VESICLE | 510 nm |  |  | 
COc1ccc2c(ccc(/C=C/c3ccc(NC(C)=O)cc3)[n+]2C)c1.[I-] [Compound I18] | NUCLEOLI | 650 nm | 430(broad) nm |  | 
COc1ccc2c(ccc(C=Cc3ccc(N(C)C)cc3)[n+]2C)c1.[I-] [Compound I19] | NUCLEOLI | 630 nm |  |  | 
COc1ccc2c(ccc(C=Cc3ccccc3[N+](=O)[O-])[n+]2C)c1.[I-] [Compound I20] | NUCLEOLI | 620 nm | 420(broad) nm |  | 
COc1ccc2c(ccc(C=Cc3cccc([N+](=O)[O-])c3)[n+]2C)c1.[I-] [Compound I21] | VESICLE; also recorded: NUCLEOLI | 620 nm | 390 nm |  | 
COc1ccc2c(ccc(C=Cc3ccc(N(C)C)c4ccccc34)[n+]2C)c1.[I-] [Compound I27] | NUCLEOLI | 630-660 nm | 420 nm |  | 
COc1ccc2c(ccc(C=Cc3ccc4c(c3)Cc3ccccc3-4)[n+]2C)c1.[I-] [Compound I28] | NUCLEOLI | 660 nm | 450(broad) nm |  | 
COc1ccc2c(ccc(C=Cc3ccc(F)cc3)[n+]2C)c1.[I-] [Compound I30] | MITO | 630 nm |  |  | 
COc1ccc2c(ccc(C=Cc3c(F)c(F)c(F)c(F)c3F)[n+]2C)c1.[I-] [Compound I31] | MITO and NUCLEI and CYTO | 610 nm | 380 nm |  | 
COc1ccc2c(ccc(C=Cc3cccc4ccccc34)[n+]2C)c1.[I-] [Compound I32] | MITO and NUCLEI and NUCLEOLI | 610 nm | 360-440 nm |  | 

Source: patent US20050054006A1, “Combinatorial fluorescent library based on the styryl scaffold” (New York University, priority 2003, published 2005)
